Each structure is given as a SMILES string. Like-named read-outs stand apart in the source and are kept apart here.

Experiment [1] has as its target acetylcholinesterase (AChE) (Homo sapiens, UniProt P22303). The experiment in a line: biochemical.
Method: Acetylcholinesterase inhibition was determined according to the previously described method [34] with a slight modification. The assay was carried out in Tris-HCl buffer (pH = 8 at 25 °C). The test extracts or compounds were diluted in the same buffer to the appropriate concentrations. Firstly, the reaction mixture containing the sample solution (50 µL), AChE solution (25 µL, 0.25 U/mL), and Ellman’s Reagent (3 mM, 125 µL) was incubated for 15 min at room temperature. Subsequently, 25 µL of ACh iodide (15 mM) was added, and after a further quarter-hour of incubation, the absorbance was estimated at 405 nm. The blank well contained the same amount of Tris-HCl buffer instead of the sample solution. […] All measurements were conducted in triplicate, and the values are presented as IC50 means with standard deviations (SDs). The percent inhibition was calculated using the following formula:Enzyme inhibition activity (%) = (B − S)/B × 100% where B is the blank, and S is the sample absorbance.
Experiment [2] is described as follows: Cupric ion reducing method (CUPRAC). As to conditions: compounds 1–19; Trolox equivalents; mean ± SD, triplicate; na = no significant activity. On the procedure: The total antioxidant capacity was determined using an Antioxidant Assay Kit MAK334. In short, 20 µL of each fraction or compound solution was added to 100 µL of the Reaction Mix in the clear, flat-bottomed 96-well plate. The absorbance was measured at 570 nm after 10 min of incubation at room temperature. The results were determined using a standard curve evaluated for Trolox.

A short description of experiment [3]: ABTS radical cation scavenging activity (Antioxidant Assay Kit). As to conditions: compounds 1–19; Trolox equivalents; mean ± SD, triplicate.
Method: The potential inhibition of the production of the radical cation was measured using an Antioxidant Assay Kit. In short, the mixed solution, including 10 µL of the test sample, 20 µL of the myoglobin working solution, and 150 µL of the ABTS working solution, was incubated for 5 min. Then, 100 µL of the stop solution was added, and the absorbance was measured at 405 nm. All tests were performed in triplicate. The results were expressed as µM of Trolox equivalents obtained from the standard curve.
Experiment [4] in a line: Free radical scavenging activity (DPPH assay). The settings on record: compounds 1–19; Trolox equivalents; mean ± SD, triplicate. On the technique in general: The DPPH test is a chemical assay of radical scavenging.
Method: The methanolic solutions of fractions or compounds (130 µL) were added to the DPPH solution (70 µL). The sample’s absorbance was recorded after 30 min of incubation in darkness. All tests were performed in triplicate [33]. The radical scavenging activity of the tested samples was calculated using an equation obtained through linear regression of the Trolox standard curve. The methanolic solutions of fractions or compounds (130 µL) were added to the DPPH solution (70 µL). The sample absorbance was recorded after 30 min of incubation in darkness. All tests were performed in triplicate [33]. The radical scavenging activity of the tested samples was calculated using the equation obtained through linear regression of the Trolox standard curve.
A short description of experiment [5]: Ferric-reducing antioxidant power method (FRAP). As to conditions: compounds 1–19; ferrous ion equivalents; mean ± SD, triplicate; na = no significant activity.
Method: The ferric-reducing power was measured using the Ferric-Reducing Antioxidant Power Assay Kit. In brief, 10 µL of the tested solution was added to 190 µL of the reaction solutions (containing FRAP Assay Buffer, FeCl3 solution, and FRAP Probe). All of the absorbance values were recorded at 594 nm after 1 h of incubation at 37 °C. The chelating activity was determined using a standard curve and evaluated as mM of ferrous ion equivalents. All tests were performed in triplicate.
[6] abbreviates: compounds 1–19, mean ± SD, at least triplicate, read-out: AChE IC50.

acetylcholinesterase (AChE), sequence (P22303 32-614): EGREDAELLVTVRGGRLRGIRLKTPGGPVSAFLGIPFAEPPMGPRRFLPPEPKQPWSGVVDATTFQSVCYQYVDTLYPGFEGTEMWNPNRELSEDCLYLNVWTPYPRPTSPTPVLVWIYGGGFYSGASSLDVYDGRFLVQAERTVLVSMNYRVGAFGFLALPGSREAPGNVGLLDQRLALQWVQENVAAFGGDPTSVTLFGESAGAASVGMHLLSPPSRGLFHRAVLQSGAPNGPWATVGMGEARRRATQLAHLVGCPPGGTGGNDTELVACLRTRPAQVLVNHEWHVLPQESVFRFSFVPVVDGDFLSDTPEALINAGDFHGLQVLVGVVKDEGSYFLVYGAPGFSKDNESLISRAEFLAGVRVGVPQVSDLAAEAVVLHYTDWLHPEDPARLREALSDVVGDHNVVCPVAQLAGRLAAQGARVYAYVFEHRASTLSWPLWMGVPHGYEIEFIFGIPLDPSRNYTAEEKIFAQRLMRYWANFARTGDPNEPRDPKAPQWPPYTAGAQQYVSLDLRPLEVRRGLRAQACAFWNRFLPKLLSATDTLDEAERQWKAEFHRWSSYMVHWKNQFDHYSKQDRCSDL

By IC50 is commonly meant the concentration at which inhibition is half-maximal. For the molecule `O=C(CC(=O)c1ccccc1)c1ccccc1` [Compound 1, 1,3-diphenylpropane-1,3-dione], the IC50 in experiment [1] (setting [6]) was 144.8 ± 1.3 µM. The CUPRAC in experiment [2] came to 3.18 ± 0.32 µM Teq. The ABTS in experiment [3] is on record as 300.12 ± 4.97 µM Teq. Besides, the DPPH in experiment [4] was found to be 39.81 ± 2.76 µM Teq.
For `O=c1cc(-c2ccccc2)oc2cccc(O)c12` [Compound 2, 5-hydroxyflavone], the IC50 in experiment [1] (setting [6]) is 314.4 ± 1.72 µM. For the same molecule, the ABTS in experiment [3] was 317.47 ± 3.91 µM Teq. The DPPH in experiment [4] came out at 41.71 ± 2.28 µM Teq.
With `COc1ccccc1-c1cc(=O)c2c(O)cccc2o1` [Compound 3, 5-hydroxy-2′-methoxyflavone], the IC50 in experiment [1] (setting [6]) is 279.7 ± 0.45 µM. Moreover, the ABTS in experiment [3] worked out at 330.59 ± 4.04 µM Teq. In experiment [4], the DPPH was determined as 39.39 ± 1.59 µM Teq.
`COc1cccc(OC)c1-c1cc(=O)c2c(O)cccc2o1` [Compound 4, 5-hydroxy-2’,6’-dimethoxyflavone]: in experiment [1] (setting [6]), the IC50 worked out at 325.4 ± 3.21 µM. Besides, the ABTS in experiment [3] amounted to 326.76 ± 6.64 µM Teq. Moreover, the DPPH in experiment [4] is recorded as 28.63 ± 2.40 µM Teq.
Taken in the same sequence, the figures for `COc1ccc(OC)c(-c2cc(=O)c3c(O)cccc3o2)c1OC` [Compound 5, 5-hydroxy-2’,3’,6’-trimethoxyflavone] were 284.6 ± 0.8 µM, 280.02 ± 1.55 µM Teq and 34.32 ± 0.97 µM Teq.
Take `COc1ccc2oc(-c3ccccc3O)cc(=O)c2c1O` [Compound 6, 2’,5-dihydroxy-6-methoxyflavone]: the half-inhibitory concentration (IC50) in experiment [1] (setting [6]) is 391.8 ± 1.06 µM. Moreover, the CUPRAC in experiment [2] stood at 366.29 ± 1.24 µM Teq. Besides, the ABTS in experiment [3] is reported as 781.28 ± 4.38 µM Teq. Also, in experiment [5], the FRAP turned out to be 15.81 ± 0.85 mM Fe^2+/mL. In experiment [4], the DPPH was 227.55 ± 2.85 µM Teq.
For `COc1ccc(O)c(-c2cc(=O)c3c(O)cccc3o2)c1OC` [Compound 7, 5,6′-dihydroxy-2′,3′-dimethoxyflavone], in experiment [1] (setting [6]), the IC50 was determined as 390.8 ± 0.66 µM. Besides, in experiment [3], the ABTS was found to be 277.56 ± 2.88 µM Teq. Also, in experiment [4], the DPPH stood at 37.85 ± 1.90 µM Teq.
`O=c1cc(-c2ccccc2O[C@@H]2O[C@H](CO)[C@@H](O)[C@H](O)[C@H]2O)oc2cccc(O)c12` [Compound 9, 5,2′-dihydroxyflavone 2′-O-β-glucopyranoside]: the IC50 in experiment [1] (setting [6]) is 399.7 ± 0.64 µM. The CUPRAC in experiment [2] is listed as 20.33 ± 1.57 µM Teq. The ABTS in experiment [3] was 204.59 ± 2.26 µM Teq. In addition, in experiment [4], the DPPH came to 170.56 ± 2.49 µM Teq.
For the molecule `O=c1cc(-c2ccccc2)oc2ccc(OC3OC(COC4OC(CO)C(O)C(O)C4O)C(O)C(O)C3O)c(O)c12` (stereo not drawn) [Compound 10, 5,6-dihydroxyflavone 6-O-(6″-O-glucopyranosyl)-β-glucopyranoside], in experiment [1] (setting [6]), the half-inhibitory concentration (IC50) came out at 376.1 ± 1.87 µM. Further, the CUPRAC in experiment [2] is 19.79 ± 1.03 µM Teq. The ABTS in experiment [3] is given as 624.94 ± 5.70 µM Teq. Besides, the DPPH in experiment [4] is on record as 204.31 ± 3.31 µM Teq.
As to `O=c1cc(-c2ccccc2O)oc2cccc(O)c12` [Compound 11, 5,2′-dihydroxyflavone], the IC50 in experiment [1] (setting [6]) is 371.5 ± 0.66 µM. Also, the CUPRAC in experiment [2] stood at 44.50 ± 1.35 µM Teq. In addition, the ABTS in experiment [3] worked out at 661.30 ± 3.81 µM Teq. Further, in experiment [5], the FRAP is reported as 0.07 ± 0.01 mM Fe^2+/mL. In addition, in experiment [4], the DPPH is given as 175.83 ± 2.83 µM Teq.
Turning to `O=c1cc(-c2ccccc2)oc2ccc(O)c(O)c12` [Compound 12, 5,6-dihydroxyflavone], the IC50 in experiment [1] (setting [6]) amounted to 362.2 ± 0.39 µM. For the same molecule, the CUPRAC in experiment [2] came to 1060.42 ± 5.33 µM Teq. Moreover, the ABTS in experiment [3] was 1052.41 ± 5.51 µM Teq. For the same molecule, the FRAP in experiment [5] is 54.25 ± 1.03 mM Fe^2+/mL. Besides, the DPPH in experiment [4] stood at 1522.38 ± 7.31 µM Teq.
For `O=c1cc(-c2ccccc2)oc2cc(O)cc(O)c12` [Compound 13, 5,7-dihydroxyflavone], the IC50 in experiment [1] (setting [6]) is 330.1 ± 1.77 µM. In addition, the ABTS in experiment [3] was 728.26 ± 1.08 µM Teq. The FRAP in experiment [5] amounted to 0.08 ± 0.01 mM Fe^2+/mL. The DPPH in experiment [4] amounted to 227.51 ± 1.83 µM Teq.
Consider `CC1OC(OCC2OC(Oc3c(-c4ccc(O)cc4)oc4cc(O)cc(O)c4c3=O)C(O)C(O)C2O)C(O)C(O)C1O` (stereo not drawn) [Compound 15, kaempferol 3-O-(6″-O-α-rhamnopyranosyl)-β-glucopyranoside], for which the IC50 in experiment [1] (setting [6]) came to 407.4 ± 1.41 µM. Besides, the CUPRAC in experiment [2] was found to be 56.81 ± 1.52 µM Teq. The ABTS in experiment [3] is 702.29 ± 2.47 µM Teq. Also, in experiment [5], the FRAP was determined as 0.40 ± 0.06 mM Fe^2+/mL. The DPPH in experiment [4] is 250.72 ± 1.65 µM Teq.
Taken in the same sequence, the figures for `O=c1c(OC2OC(COC3OCC(O)C(O)C3O)C(O)C(O)C2O)c(-c2ccc(O)cc2)oc2cc(O)cc(O)c12` (stereo not drawn) [Compound 16, kaempferol-3-O-(6″-O-β-xylopyranosyl)-β-glucopyranoside] were 364.3 ± 1.79 µM, 74.40 ± 1.49 µM Teq, 717.32 ± 3.47 µM Teq, 0.67 ± 0.06 mM Fe^2+/mL and 300.29 ± 1.87 µM Teq.
As for `O=c1c(O)c(-c2ccc(O)cc2)oc2cc(O)cc(O)c12` [Compound 17, kaempferol], the IC50 in experiment [1] is 276.9 ± 1.41 µM. Besides, in experiment [2], the CUPRAC stood at 848.64 ± 3.49 µM Teq. Also, in experiment [3], the ABTS worked out at 1095.04 ± 1.85 µM Teq. Besides, the FRAP in experiment [5] turned out to be 36.87 ± 1.20 mM Fe^2+/mL. In experiment [4], the DPPH is given as 792.53 ± 7.31 µM Teq.
In the case of `O=c1c(OC2OC(COC3OCC(O)C(O)C3O)C(O)C(O)C2O)c(-c2ccc(O)c(O)c2)oc2cc(O)cc(O)c12` (stereo not drawn) [Compound 18, quercetin 3-O-(6″-O-β-xylopyranosyl)-β-glucopyranoside], in experiment [1] (setting [6]), the IC50 was found to be 303 ± 3.33 µM. Further, the CUPRAC in experiment [2] stood at 1401.11 ± 2.64 µM Teq. Further, in experiment [3], the ABTS is reported as 1147.52 ± 7.06 µM Teq. In experiment [5], the FRAP worked out at 63.98 ± 1.75 mM Fe^2+/mL. Moreover, the DPPH in experiment [4] came out at 1336.75 ± 6.33 µM Teq.
Molecule `C[C@@H]1O[C@@H](OC[C@H]2O[C@@H](Oc3c(-c4ccc(O)c(O)c4)oc4cc(O)cc(O)c4c3=O)[C@H](O)[C@@H](O)[C@@H]2O)[C@H](O)[C@H](O)[C@H]1O` [Compound 19, quercetin 3-O-(6″-O-α-rhamnopyranosyl)-β-glucopyranoside] displayed an IC50 in experiment [1] of 445.32 ± 0.35 µM. Also, in experiment [2], the CUPRAC turned out to be 1258.68 ± 3.49 µM Teq. Also, the ABTS in experiment [3] is listed as 1149.16 ± 5.25 µM Teq. Further, the FRAP in experiment [5] stood at 52.98 ± 1.35 mM Fe^2+/mL. Moreover, the DPPH in experiment [4] was 1467.53 ± 5.48 µM Teq.
